pIC50: −log10 of the molar value. Like-named read-outs stand apart in the source and are kept apart here.
Experiments:
human CCR6 = biological target: T1, human CCR6 (Homo sapiens, UniProt P51684); experiment: human CCR6 calcium flux activity (FLIPR, HEK293 cells stably expressing human CCR6, CCL20 stimulation); type: cell-based; conditions: HEK293 cells stably expressing human CCR6, EC80 human MIP-3 alpha/CCL20; read-out: CCR6 inhibitory activity, IC50
T1 construct: expressed in transfected cells; host or cells: HEK293
T1 sequence (P51684 1-374): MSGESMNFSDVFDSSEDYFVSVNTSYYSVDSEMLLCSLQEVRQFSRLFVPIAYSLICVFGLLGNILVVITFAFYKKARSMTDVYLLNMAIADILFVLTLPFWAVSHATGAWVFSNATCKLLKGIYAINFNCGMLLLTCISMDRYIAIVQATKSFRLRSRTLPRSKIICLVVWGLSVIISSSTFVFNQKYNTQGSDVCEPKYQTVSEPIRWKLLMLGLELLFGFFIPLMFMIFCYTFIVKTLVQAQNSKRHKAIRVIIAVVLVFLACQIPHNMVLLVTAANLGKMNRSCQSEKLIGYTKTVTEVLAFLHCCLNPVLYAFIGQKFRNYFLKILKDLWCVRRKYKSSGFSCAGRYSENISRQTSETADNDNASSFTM
Procedure: The activity of the compounds was evaluated using HEK293 cells stably expressing human CCR6 via the FLIPR platform. A 384-well black cell culture plate (Greiner, 781946) was used, with a seeding density of 20,000 cells/well, and incubated overnight at 37°C in a 5% CO2 incubator. The culture medium in the cell plate wells was removed, and 20 µL of Fluo-4 Direct™ Calcium Assay Buffer (Invitrogen, F10471, Component C), 20 µL of 2× Fluo-4 Direct™ Calcium Assay Reagent (Invitrogen, F10471, Component A) working solution, and 10 µL of 6× test compound working solution were sequentially added to each well. The cell plate was incubated in a 37 °C, 5% CO2 incubator for 50 min, followed by a 10 min incubation at room temperature. Additionally, a 6×EC80 human MIP-3 alpha/CCL20 (MCE, HY-P7262) working solution was prepared. After the incubation was completed, 10 µL/well of the 6×EC80 human MIP-3 alpha/CCL20 working solution was transferred to the cell plate using a FLIPR instrument, and the fluorescence signal changes at an excitation wavelength of 494 nm and an emission wavelength of 516 nm were recorded over 90 seconds. The difference between the maximum fluorescence signal (RFUMax) and the minimum fluorescence signal (RFUMin) was used as the output signal. The compound inhibition rate and the log value of the compound concentration were calculated, and a four-parameter fitting analysis was performed using GraphPad Prism 8 software to obtain the IC50 value of the test compound.

[1] = in vivo pharmacokinetic study in SD rats; conditions: rat; for bioavailability: 1 mg/kg PO vs 1 mg/kg IV, read-out: Oral bioavailability F (%); for AUC(0-t) / Cmax / half-life: 1 mg/kg
Procedure: 2.2.1 Rats: SD rats, SPF grade, 6 rats per compound, male, body weight range 180-200 g.
2.2.2 Housing conditions: The animals were housed in an SPF-grade animal facility with free access to food and water, three per cage, under a 12/12-hour light/dark cycle (7:00 am/7:00 pm), at a temperature of 23 ± 3°C.
2.2.3 Drug preparation: The compound was precisely weighed, mixed with the required volume of 1% Tween 80, vortexed for 2 min, and then sonicated for 5 min until no visible particles remained. The mixture was subsequently stirred on a magnetic stirrer for 20 min, and the middle layer of the drug solution was collected for administration. For the IV group, the compound was accurately weighed, dissolved in the required volume of 50% PEG400, sonicated for 10 min, and vortexed until clear before administration.
The rats were randomly divided into 2 groups based on body weight, with 3 rats per compound per group. Group 1 was administered a single oral gavage dose (fasted), and Group 2 was administered a single tail vein bolus injection. Blood collection time points: for the po group, blood was collected at 0.167 h, 0.5 h, 1 h, 2 h, 3 h, 4 h, 6 h, and 8 h; for the iv group, blood was collected at 0.033 h, 0.167 h, 0.5 h, 1 h, 2 h, 4 h, 6 h, and 8 h.
After administration to the rats, blood was collected from the orbital venous plexus according to the sampling time points. Approximately 0.2-0.3 mL of blood was collected at each time point into anticoagulant EP tubes (containing 4 µL of EDTA-K2, 375 mg/mL, dried at 50°C). The tubes were slowly inverted up and down three times and stored in an ice box (for no more than 30 minutes). Centrifugation was performed at 4°C at 3000 × g for 10 minutes, and the supernatant was transferred to labeled EP tubes for bioanalytical testing. If testing could not be performed on the same day, the samples were stored at -80°C until analysis (care was taken to avoid multiple freeze/thaw cycles).
The data were analyzed using WinNonlin via a non-compartmental model to obtain PK parameters (Cmax, AUC0-last, AUCinf, T1/2, etc., selected based on different routes of administration). For specific data, please refer to Table 2. Table 2. PK experimental results of compounds in SD rats

Row | pIC50 (human CCR6) | SMILES | also measured
1 | 7.27 | CN(C)C(=O)c1nccc(Nc2c(N[C@@H](C#CC3CCC3)[C@@]3(C)CC(F)(F)CO3)c(=O)c2=O)c1O (single isomer, unassigned) [110B] | 
2 |  | Cc1cccnc1C(Nc1c(Nc2ccnc(C(=O)N(C)C)c2O)c(=O)c1=O)C1(C)CCC(F)(F)C1 (single isomer, unassigned) [125B] | bioavailability ([1]; in vivo): 136%; AUC(0-t) ([1]; in vivo, IV): 1500 ng·h/mL; Cmax ([1]; in vivo, IV): 3050 ng/mL; AUC(0-t) ([1]; in vivo, PO): 2040 ng·h/mL; Cmax ([1]; in vivo, PO): 822 ng/mL; half-life ([1]; in vivo, PO): 1.37 h
3 |  | Cc1cc(F)cnc1[C@H](Nc1c(Nc2ccnc(C(=O)N(C)C)c2O)c(=O)c1=O)[C@@]1(C)CC(F)(F)CO1 [093B, 4-((2-(((S)-((R)-4,4-difluoro-2-methyltetrahydrofuran-2-yl)(5-fluoro-3-methylpyridin-2-yl)methyl)amino)-3,4-dioxocyclobut-1-en-1-yl)amino)-3-hydroxy-N,N-dimethylpicolinamide] | bioavailability ([1]; male, plasma): 51.6%; AUC(0-t) ([1]; male, plasma, IV): 716 ng·h/mL; Cmax ([1]; male, plasma, IV): 1890 ng/mL; AUC(0-t) ([1]; male, plasma, PO): 370 ng·h/mL; Cmax ([1]; male, plasma, PO): 285 ng/mL; half-life ([1]; male, plasma, PO): 3.83 h
4 | 8.62 | CN(C)C(=O)c1nccc(Nc2c(N[C@@H](c3ncccc3F)C3(C)CCCC3)c(=O)c2=O)c1O [compound 001, (R)-4-((2-(((3-fluoropyridin-2-yl)(1-methylcyclopentyl)methyl)amino)-3,4-dioxocyclobut-1-en-1-yl)amino)-3-hydroxy-N,N-dimethylpicolinamide] | 
5 | 7.13 | CN(C)C(=O)c1nccc(Nc2c(N[C@@H](c3cnccn3)C3(C)CCCC3)c(=O)c2=O)c1O [compound 006, (R)-3-hydroxy-N,N-dimethyl-4-((2-(((1-methylcyclopentyl)(pyrazin-2-yl)methyl)amino)-3,4-dioxocyclobut-1-en-1-yl)amino)picolinamide] | 
6 | 6.82 | CN(C)C(=O)c1nccc(Nc2c(N[C@@H](c3cccc(C(F)(F)F)n3)C3(C)CCCC3)c(=O)c2=O)c1O [compound 008, (R)-3-hydroxy-N,N-dimethyl-4-((2-(((1-methylcyclopentyl)(6-(trifluoromethyl)pyridin-2-yl)methyl)amino)-3,4-dioxocyclobut-1-en-1-yl)amino)picolinamide] | 
7 | 7.65 | CN(C)C(=O)c1nccc(Nc2c(N[C@@H](c3ncc(F)cc3Cl)C3(C)CCCC3)c(=O)c2=O)c1O [compound 011, (R)-4-((2-(((3-chloro-5-fluoropyridin-2-yl)(1-methylcyclopentyl)methyl)amino)-3,4-dioxocyclobut-1-en-1-yl)amino)-3-hydroxy-N,N-dimethylpicolinamide] | 
8 | 8.05 | CN(C)C(=O)c1nccc(Nc2c(N[C@@H](c3cc(Cl)ccn3)C3(C)CCCC3)c(=O)c2=O)c1O [compound 012, (R)-4-((2-(((4-chloropyridin-2-yl)(1-methylcyclopentyl)methyl)amino)-3,4-dioxocyclobut-1-en-1-yl)amino)-3-hydroxy-N,N-dimethylpicolinamide] | 
9 | 6.79 | CN(C)C(=O)c1nccc(Nc2c(N[C@@H](c3ncccc3C(F)F)C3(C)CCCC3)c(=O)c2=O)c1O [compound 015, (R)-4-((2-(((3-(difluoromethyl)pyridin-2-yl)(1-methylcyclopentyl)methyl)amino)-3,4-dioxocyclobut-1-en-1-yl)amino)-3-hydroxy-N,N-dimethylpicolinamide] | 
10 | 8.19 | CN(C)C(=O)c1nccc(Nc2c(N[C@@H](c3nccc(F)c3F)C3(C)CCCC3)c(=O)c2=O)c1O [compound 021, (R)-4-((2-(((3,4-difluoropyridin-2-yl)(1-methylcyclopentyl)methyl)amino)-3,4-dioxocyclobut-1-en-1-yl)amino)-3-hydroxy-N,N-dimethylpicolinamide] | 
11 | 7.32 | CN(C)C(=O)c1nccc(Nc2c(N[C@@H](c3ccc(F)c(F)n3)C3(C)CCCC3)c(=O)c2=O)c1O [compound 024, (R)-4-((2-(((5,6-difluoropyridin-2-yl)(1-methylcyclopentyl)methyl)amino)-3,4-dioxocyclobut-1-en-1-yl)amino)-3-hydroxy-N,N-dimethylpicolinamide] | 
12 | 9.15 | CC(C)N(C)C(=O)c1nccc(Nc2c(N[C@@H](c3ncccc3F)C3(C)CCCC3)c(=O)c2=O)c1O [compound 026, (R)-4-((2-(((3-fluoropyridin-2-yl)(1-methylcyclopentyl)methyl)amino)-3,4-dioxocyclobut-1-en-1-yl)amino)-3-hydroxy-N-isopropyl-N-methylpicolinamide] | 
13 | 5.86 | CN(C)C(=O)c1nccc(Nc2c(NC(c3nn(C)c4c3COC4)C3(C)CCCC3)c(=O)c2=O)c1O (centres unmarked) [compound 027, 3-hydroxy-N,N-dimethyl-4-((2-(((1-methyl-4,6-dihydro-1H-furo[3,4-c]pyrazol-3-yl)(1-methylcyclopentyl)methyl)amino)-3,4-dioxocyclobut-1-en-1-yl)amino)picolinamide] | 
14 | 6.79 | Cc1c(C(Nc2c(Nc3ccnc(C(=O)N(C)C)c3O)c(=O)c2=O)C2(C)CCCC2)nn2c1CCC2 (centres unmarked) [compound 029, 3-hydroxy-N,N-dimethyl-4-((2-(((3-methyl-5,6-dihydro-4H-pyrrolo[1,2-b]pyrazol-2-yl)(1-methylcyclopentyl)methyl)amino)-3,4-dioxocyclobut-1-en-1-yl)amino)picolinamide] | 
15 | 6.05 | CN(C)C(=O)c1nccc(Nc2c(NC(C(=O)C3CC3)C3(C)CCCC3)c(=O)c2=O)c1O (centres unmarked) [compound 034, 4-((2-((2-cyclopropyl-1-(1-methylcyclopentyl)-2-oxoethyl)amino)-3,4-dioxocyclobut-1-en-1-yl)amino)-3-hydroxy-N,N-dimethylpicolinamide] | 
16 | 6.09 | CN(C)C(=O)c1nccc(Nc2c(NC(C(=O)C3CCC3)C3(C)CCCC3)c(=O)c2=O)c1O (centres unmarked) [compound 035, 4-((2-((2-cyclobutyl-1-(1-methylcyclopentyl)-2-oxoethyl)amino)-3,4-dioxocyclobut-1-en-1-yl)amino)-3-hydroxy-N,N-dimethylpicolinamide] | 
17 | 7.02 | CN(C)C(=O)c1nccc(Nc2c(N[C@@H](c3ccccc3)C3(C)CCCC3)c(=O)c2=O)c1O [compound 037, (R)-3-hydroxy-N,N-dimethyl-4-((2-(((1-methylcyclopentyl)(phenyl)methyl)amino)-3,4-dioxocyclobut-1-en-1-yl)amino)picolinamide] | 
18 | 6.95 | CC(C)[C@H](Nc1c(Nc2ccnc(C(=O)N(C)C)c2O)c(=O)c1=O)C1(C)CCCC1 [compound 038, (S)-3-hydroxy-N,N-dimethyl-4-((2-((2-methyl-1-(1-methylcyclopentyl)propyl)amino)-3,4-dioxocyclobut-1-en-1-yl)amino)picolinamide] | 
19 | 7.22 | Cc1c(Cl)ccnc1[C@H](Nc1c(Nc2ccnc(C(=O)N(C)C)c2O)c(=O)c1=O)C1(C)CCCC1 [compound 048, (R)-4-((2-(((4-chloro-3-methylpyridin-2-yl)(1-methylcyclopentyl)methyl)amino)-3,4-dioxocyclobut-1-en-1-yl)amino)-3-hydroxy-N,N-dimethylpicolinamide] | 

Source: patent EP4703354A1, “COMPOUND AS CCR6 ANTAGONIST, AND PHARMACEUTICAL COMPOSITION AND USE THEREOF” (Wuhan Createrna Science and Technology Co.,Ltd., priority 2023, dated 2024)
